Series [1] relates to male rats in which chronic renal hypertension had been induced. As to the kind of experiment: Fall in arterial pressure in rats rendered hypertensive by the GROLLMAN method (chronic renal hypertension). It is filed as in vivo, rat. Conditions: intragastric; for Fall in A.P.: 25 mg/kg, measured before and 1-6 hours after administration.
Protocol: The first test was carried out on male rats weighing about 120g in which chronic renal hypertension had been induced by the Grollman technique [Proc. Soc. exp.
According to this technique, the animals are anaesthetized with ether and one kidney is displaced from its site without being detached from the body, the suprarenal gland having been first liberated from the kidney but otherwise left intact. The kidney is then bound with twine in the form of a figure eight, just tightly enough to alter slightly the ellipsoid shape of the organ. Ten days later, the other kidney is completely removed together with its suprarenal gland.
Arterial pressure was measured immediately before and 1,2,3,4,5 and 6 hours after administration.
Series [2] concerns experimentally induced hypertension. Conditions: rat, in vivo; cited from earlier work.
For series [3] the test system is unchanged. As to the kind of experiment: Experimentally induced hypertension, general statements on anti-hypertensive activity. Conditions: rat, in vivo. The method, then: (§1) All of these tests were performeed on rats which were in a state of hypertension. Each test was divided into two series. In the first series, one single dose of the product under study was administered by intragastric route to each animal and the arterial pressure of the latter was measured every hour for six hours after administration. In the second series the product under study was given by the same route every day for eleven consecutive days and arterial pressure was measured daily throughout this period. The amount of product administered varied from one animal to another.

For series [4], the system named is rats with neurogenic hypertension. As to the kind of experiment: Neurogenic hypertension (technique of KRIEGER and IMBS). Format: in vivo, rat. Conditions: intragastric. The method, then: as §1
(4) Neurogenic hypertension
This test was performed in accordance with the technique of KRIEGER and IMBS (Circul. Res. 15, 511, 1964 and C.R. Soc. Biol. 162, 778, 1968).
Male rats weighing from 200 to 250g were anaesthetized with ether and 0.5mg of atropine sulphate was administered to them intraperitoneally.
The rats were fixed in a supine position and an incision was made in the front of the neck to expose the neuromuscular bundle comprising the sumpathetic and vagus nerve and the common carotid arteries.
The vagus nerves and the carotid arteries were then carefully isolated while one centimeter was cut out of the sympathetic nerves. […] The area in which the carotids divide was exposed by pulling aside the appropriate neck muscles (sternocleidomastoideus and omohyoideus). The vessels thus liberated were painted with 10% phenol in ethanol. In this way, complete sympathetic denervation was obtained.
A marked rise in arterial pressure was obtained after 5 to 8 days.

Another series has as its system male albino rats. As to the kind of experiment: Volumetric urinary excretion (technique of LIPSCHITZ et al.). It is filed as in vivo, rat. Conditions: intragastric, 6 hours, % of volume of saline administered. The procedure:
1 -- Volumetric urinary excretion
This test was performed according to the technique of LIPSCHITZ et al. (J. Pharmacol. exp. Therap. 79, 97, 1943), by using groups of 20 male albino rats weighing from 150 to 200g which had been deprived of food and drink for 18 hours.
The substance to be tested was given by intragastric route immediately after the intragastric administration of 50 ml/kg of a 9°/°° solution of NaCl.
A control group also of 20 rats only received the saline solution. The total amount of urine excreted during the 6 hours following administration was collected and measured.

In a further series the test system is Mouse. As to the kind of experiment: Acute toxicity in mice. It is filed as in vivo. Particulars: 12 days observation. The method, then:
(§2) Finally, acute toxicity trials were carried out on rats and mice which were kept under observation for 12 days following one single administration.

In series [5] the test system is nictitating membrane of an anaesthetized cat. As to the kind of experiment: Ganglioplegic activity: contractions of the nictitating membrane of anaesthetized cat. Format: in vivo. Particulars: two intravenous doses of 5 mg/kg. The procedure: (1) The arterial pressure and the tonus of the nictitating membrane of an anaesthetized cat was first noted, after which the contractile reaction of the membrane to an intravenous injection of adrenaline and to electric stimulation of the preganglionic fibre of the cervical sympathetic nerve was tested.

For another series, the system named is Rat. Briefly: Acute toxicity in rats. Format: in vivo. Conditions: 12 days observation. The method, then: as §2
For another series, the system named is albino male rats. Briefly: Ionic ratio in urinary excretion (technique of AMBROSILI et al.). It is filed as in vivo, rat. Conditions: for Na^+ /K^+ Ratio / K^+ excretion / Na^+ excretion / Urinary excretion: intragastric, 4 hours; for Na^+ /K^+ Ratio: control 1; for K^+ excretion: control 18.5; for Na^+ excretion: control 27.3; for Urinary excretion: control 40. The procedure: 2 -- Ionic ratio in urinary excretion
This test was performed according to the technique of AMBROSILI et al. (Minerva Nepol. 11,56, 1964).
The substance to be tested was given by intragastric route immediately after the intragastric administration of 50 ml/kg of distilled water to groups of 20 albino male rats weighing 140 { 10g which had been fasting for 18 hours.
A control group, also comprising 20 animals, only received the distilled water.
The total amount of urine excreted during the 4 hours following administration was collected and measured and the total Na^+ and K^+ ion excretion values determined.
These values were then converted to millieequivalents per liter (mEq/l.) in order to obtain the correct Na^+ and K^+ ion excretion figures independently of the increase in the amount of urine.
The ionic ratio was obtained according to the following formula: [formula]

Series [6] relates to rats with hypertension of endocrine origin. As to the kind of experiment: Hypertension of endocrine origin (DOCA; technique of STANTON and WHITE). It is filed as in vivo, rat. Particulars: intragastric. The procedure:
as §1
(2) Hypertension of endocrine origin
This test was performed in accordance with the technique of STANTON and WHITE (Arch. Int. Pharmacodyn. 154, 351, 1965).
Female rats weighing 90 ± 10g were anaesthetized with ether and hypertension was produced by ablation of one kidney and the corresponding adrenal gland, after which a dose of 50 mg/kg of desoxycorticosterone acetate (DOCA) was administered subcutaneously five days a week over a period of four weeks. Throughout this period the drinking-water given to the rats contained 1% of NaCl. This was replaced by ordinary tap-water when administration of the desoxycorticosterone ceased.
Under these circumstances, arterial pressure rose to about 200 mm.Hg.

In series [7] the test system is hypertensive effect of acetylcholine in dog. As to the kind of experiment: Ganglioplegic activity: hypertensive effect of acetylcholine in anaesthetized atropinized dog.
The subject of series [8] is rats with genetic hypertension. As to the kind of experiment: Genetic hypertension (technique of OKAMOTO and AOKI). Format: in vivo, rat. Conditions: for Maximum fall in A.P.: intragastric. The procedure:
as §1
This test was performed in accordance with the technique of OKAMOTO and AOKI (Jap. Circul. J., 27, 282, 1963), using male rats belonging to a race which has been specially bred to produce animals having high blood pressure.

The subject of series [9] is rats with saline hypertension. As to the kind of experiment: Saline hypertension (technique of DAHL, KNUDSEN, HEINE and LEITL). Format: in vivo, rat. Particulars: intragastric. The method, then:
as §1
This test was performed in accordance with the technique of DAHL, KNUDSEN, HEINE and LEITL.
Male rats weighing 55 ± 5g were fed on food containing 8% of NaCl but which was otherwise normal.
After six weeks of this diet, arterial pressure had risen to about 180 mm.Hg.

Here are results for seven molecules from patent publication US4124710A, “Acetamidoxime derivatives and use thereof” (priority 1976, dated 1978).

Counter-ions that a name gives are not always drawn.

In the case of `CCCCN(CCCC)CCNC(Cc1c(CC)oc2ccccc12)=NO` [2-(2-Ethyl-3-benzofuranyl)-N-(2-di-n-butylamine-ethyl)-acetamidoxime], the “Fall in A.P.” value in series [1] worked out at 27 mm.Hg.
Still for that read-out and setting: the value for `CCc1oc2ccc(Cl)cc2c1CC(=NO)NCCN1CCOCC1` [2-(2-Ethyl-5-chloro-3-benzofuranyl)-N-(2-morpholino-ethyl)-acetamidoxime] was 21 mm.Hg; that for `Cc1oc2ccccc2c1CC(=NO)NCCN1CCOCC1` [2-(2-Methyl-3-benzofuranyl)-N-(2-morpholino-ethyl)-acetamidoxime] was 25 mm.Hg.
On to `CCCN1CCN(C(=N)Cc2c(CC)oc3ccccc23)CC1` [2-(2-ethyl-3-benzofuranyl)-N,N-(3-n-propyl-3-aza-pentamethylene)-acetamidine dihydrochloride, reference compound], for which the “fall in arterial pressure” value in series [1] (50 mg/kg) amounted to 14 mm.Hg; in series [1] (200 mg/kg) it was 24 mm.Hg. Also, the “activity in the treatment of experimentally induced hypertension” value in series [2] was “pharmacologically active”.
With `CCc1oc2ccccc2c1CC(=NO)NCCN1CCOCC1` [L 9552, 2-(2-ethyl-3-benzofuranyl)-N-(2-morpholino-ethyl)-acetamidoxime], the “Fall in A.P.” value in series [1] turned out to be 36 mm.Hg. In addition, the “Maximum fall in A.P.” value in [1] (daily doses (11 days) 10 mg/kg) was 18 mm.Hg; in [1] (daily doses (11 days) 25 mg/kg), 32 mm.Hg; in [1] (daily doses (11 days) 50 mg/kg) it was 47 mm.Hg; in series [1] (single dose 10 mg/kg), 14 mm.Hg; in [1] (single dose 25 mg/kg) it was 36 mm.Hg; in series [1] (single dose 50 mg/kg), 55 mm.Hg. The “Maximum fall in A.P.” value worked out at 17 mm.Hg in series [4] (daily doses (11 days) 10 mg/kg); 35 mm.Hg in [4] (daily doses (11 days) 25 mg/kg); 18 mm.Hg in [4] (single dose 10 mg/kg); 37 mm.Hg in [4] (single dose 25 mg/kg); 56 mm.Hg in [4] (single dose 50 mg/kg); 15 mm.Hg in series [6] (daily doses (11 days) 25 mg/kg). The “Maximum fall in A.P.” value is on record as 30 mm.Hg in series [6] (daily doses (11 days) 50 mg/kg); 49 mm.Hg in series [6] (daily doses (11 days) 100 mg/kg); 18 mm.Hg in series [6] (single dose 25 mg/kg); 26 mm.Hg in series [6] (single dose 50 mg/kg); 45 mm.Hg in series [6] (single dose 100 mg/kg); 0 mm.Hg in [8] (daily doses (11 days) 5 mg/kg). The “Maximum fall in A.P.” value in [8] (daily doses (11 days) 10 mg/kg) was 26 mm.Hg; in series [8] (daily doses (11 days) 20 mg/kg), 47 mm.Hg; in [8] (single dose 5 mg/kg), 16 mm.Hg; in series [8] (single dose 10 mg/kg), 35 mm.Hg; in series [8] (single dose 20 mg/kg), 52 mm.Hg; in [9] (daily doses (11 days) 10 mg/kg), 13 mm.Hg. For the same molecule, the “Maximum fall in A.P.” value in [9] (daily doses (11 days) 25 mg/kg) amounted to 26 mm.Hg; in [9] (daily doses (11 days) 50 mg/kg) it was 53 mm.Hg; in series [9] (single dose 10 mg/kg), 14 mm.Hg; in series [9] (single dose 25 mg/kg), 27 mm.Hg; in series [9] (single dose 50 mg/kg) it was 54 mm.Hg. Besides, the “activity in the five types of experimentally induced hypertension” value in [3] is “active”. The Urinary excretion is 84% with male albino rats (10 mg/kg); 102% in the series with male albino rats (20 mg/kg); 118% with male albino rats (50 mg/kg); 138% with male albino rats (100 mg/kg); 165% in the series with male albino rats (200 mg/kg); 55% in the series with albino male rats (10 mg/kg). Further, the Urinary excretion in the series with albino male rats (20 mg/kg) amounted to 80%; in the series on albino male rats (50 mg/kg), 95%; in the series with albino male rats (100 mg/kg), 137%; in the series on albino male rats (200 mg/kg), 124%. For the same molecule, the LD0 in the series with Mouse (intragastric) is 250 mg/kg; in the series with Mouse (intraperitoneal), 30 mg/kg; with Rat (intragastric), 1,100 mg/kg; in the series with Rat (intraperitoneal), 80 mg/kg. Further, the LD95 in the series with Mouse (intragastric) is listed as 1,250 mg/kg; in the series with Mouse (intraperitoneal) it was 110 mg/kg; with Rat (intragastric) it was 2,500 mg/kg; with Rat (intraperitoneal), 350 mg/kg. Also, the “effect on intensity of contractions of the nictitating membrane (adrenaline, electric stimulation)” value in series [5] is listed as “did not modify the intensity of the contractions of the membrane”. Besides, the “Na^+ /K^+ Ratio” value with albino male rats (10 mg/kg) is listed as 1.09; in the series on albino male rats (20 mg/kg), 1.66; with albino male rats (50 mg/kg), 2.50; in the series on albino male rats (100 mg/kg), 3.37; in the series with albino male rats (200 mg/kg) it was 3.34. Besides, the “K^+ excretion” value turned out to be 15.3 mEq/l in the series on albino male rats (10 mg/kg); 17.5 mEq/l with albino male rats (20 mg/kg); 15.0 mEq/l in the series on albino male rats (50 mg/kg); 14.3 mEq/l with albino male rats (100 mg/kg); 15.8 mEq/l with albino male rats (200 mg/kg). Further, the “Na^+ excretion” value with albino male rats (10 mg/kg) is listed as 24.8 mEq/l; in the series on albino male rats (20 mg/kg), 43.0 mEq/l; in the series with albino male rats (50 mg/kg) it was 55.6 mEq/l; in the series with albino male rats (100 mg/kg) it was 71.3 mEq/l; in the series with albino male rats (200 mg/kg) it was 78.0 mEq/l. For the same molecule, the sodium-excretion index result with albino male rats (rat, in vivo) is “very favourable”. For the same molecule, the “effect on the hypertensive effect of acetylcholine” value in series [7] (5 mg/kg intravenous, 1 mg/kg acetylcholine) is “did not alter the hypertensive effect”. In series [8] (rat, in vivo), the “activity in genetic hypertension” value is given as “especially active”.
Consider `NS(=O)(=O)c1cc2c(cc1Cl)NCNS2(=O)=O` [hydrochlorothiazide, reference compound], for which the “activity in this test” value in series [1] (200 mg/kg) is “inactive”.
As to `C[N+]1(CC(=O)c2ccc(-c3ccccc3)cc2)[C@@H]2CC[C@H]1C[C@@H](OC(=O)[C@H](CO)c1ccccc1)C2` (stereo partly shown) [phenthonium, reference compound], in series [7] (dose not stated, ganglioplegic substance), the “effect on the hypertensive effect of acetylcholine” value was “annulled the hypertensive effect of acetylcholine”.
